Results reported in patent US20170105926A1, “COMPOSITION COMPRISING EXTRACT OF ALPINE WORMWOOD” (AMOREPACIFIC CORPORATION, priority 2014, published 2017).

What was measured:
Format in all cases: cell-based, human
[1] = system: EDN1 (endothelin 1) gene; test: Gene expression assay by real-time PCR (EDN1); conditions: melanocytes (KaMC), 2 nM substance P, 5 days; control group = 1
Procedure: (§1) Melanocytes (KaMC) (KCTC 12015BP) deposited in the Korean Collection for Type Culture (KCTC) were cultured in M-254 medium (Gibco BRL, NY, USA) supplemented with Human Melanocyte Growth Supplement (HMGS; Gibco BRL, NY, USA) on a 6-well plate, while changing the medium every other day, in a 5% CO2 incubator at 37° C. until the cells occupied 95% of the plate area (95% confluence). […] The cells not treated with substance P or the alpine wormwood (Artemisia umbelliformis) extract of Example 1 were used as a control group. After removing the medium form the melanocytes cultured on the 6-well plate, the cells were washed 2 times with cold phosphate-buffered saline (PBS) and the remaining water was completely removed. […] 1 μL of the RNA was quantified using Synergy II (Biotek, USA). […] After adding 10 μL of Taqman Gene Expression Master Mix (Life Technologies, USA) and 1 μL of Assays-on-DemandTM (Life Technologies, USA) of NK1R (ACCESSION: NM_001058) and EDN1 (ACCESSION: NM_001168319) genes to 9 μL of the diluted cDNA, the expression of the genes was analyzed by relative quantification using 7500 Fast Real-Time PCR (Life Technologies, USA) with glyceraldehyde 3-phosphate dehydrogenase (GAPDH, ACCESSION: NM001256799) as a control gene. […]

[2] = system: NK1R (neurokinin 1 receptor) gene; test: Gene expression assay by real-time PCR (NK1R); conditions: melanocytes (KaMC), 2 nM substance P, 5 days; control group = 1
Procedure: as §1

[3] = system: endothelin 1 (EDN1); test: Endothelin 1 ELISA assay of culture medium; conditions: melanocytes (KaMC) medium, 2 nM substance P; control group = 100%
Procedure: When the density of the melanocytes on the 6-well plate reached about 80% (˜80% confluence), they were incubated for a total of 5 days with 2 nM of stress-inducing substance P (Bachem Fechemikalien, Bubendorf, Switzerland) or the alpine wormwood (Artemisia umbelliformis) extract of Example 1 of different concentrations (0, 0.1, 1, 2 and 5 ppm). The cells not treated with substance P or the alpine wormwood (Artemisia umbelliformis) extract of Example 1 were used as a control group.
The culture medium of the cells treated with the extract in (2) of Test Example 1 were recovered and the amount of endothelin 1 (EDN1) comprised in the medium was measured at 450 nm using the human total endothelin ELISA kit (MyBioSource, USA).
Endothelin content (%)=(Absorbance/Total protein content)×100 [Equation 1]

CSCC[C@H](NC(=O)[C@H](CC(C)C)NC(=O)CNC(=O)[C@H](Cc1ccccc1)NC(=O)[C@H](Cc1ccccc1)NC(=O)[C@H](CCC(N)=O)NC(=O)[C@H](CCC(N)=O)NC(=O)[C@@H]1CCCN1C(=O)[C@H](CCCCN)NC(=O)[C@@H]1CCCN1C(=O)[C@@H](N)CCCN=C(N)N)C(N)=O [substance P]
expression of the EDN1 gene (relative quantification vs GAPDH) [1]: 3.6 | expression of the NK1R gene (relative quantification vs GAPDH) [2]: 4.2 | content of endothelin 1 (absorbance/total protein content x 100) [3]: 124%
